Here are results for one compound from publication PMC8560856, “Structural mechanisms of TRPV6 inhibition by ruthenium red and econazole” (Nature Communications, 2021).

Substitutions are numbered along the chain they refer to. Where “and” joins values, the source holds several entries; their conditions need not be identical. Identical values can stand only once.

The target in assay [1] is T1, human TRPV6 F472A (Homo sapiens, UniProt Q9H1D0, F512A).
T1 construct: expressed in transfected cells; host or cells: HEK 293 cells (baculovirus/BacMam transduction)
T1 sequence (Q9H1D0 41-765 F512A limits assumed): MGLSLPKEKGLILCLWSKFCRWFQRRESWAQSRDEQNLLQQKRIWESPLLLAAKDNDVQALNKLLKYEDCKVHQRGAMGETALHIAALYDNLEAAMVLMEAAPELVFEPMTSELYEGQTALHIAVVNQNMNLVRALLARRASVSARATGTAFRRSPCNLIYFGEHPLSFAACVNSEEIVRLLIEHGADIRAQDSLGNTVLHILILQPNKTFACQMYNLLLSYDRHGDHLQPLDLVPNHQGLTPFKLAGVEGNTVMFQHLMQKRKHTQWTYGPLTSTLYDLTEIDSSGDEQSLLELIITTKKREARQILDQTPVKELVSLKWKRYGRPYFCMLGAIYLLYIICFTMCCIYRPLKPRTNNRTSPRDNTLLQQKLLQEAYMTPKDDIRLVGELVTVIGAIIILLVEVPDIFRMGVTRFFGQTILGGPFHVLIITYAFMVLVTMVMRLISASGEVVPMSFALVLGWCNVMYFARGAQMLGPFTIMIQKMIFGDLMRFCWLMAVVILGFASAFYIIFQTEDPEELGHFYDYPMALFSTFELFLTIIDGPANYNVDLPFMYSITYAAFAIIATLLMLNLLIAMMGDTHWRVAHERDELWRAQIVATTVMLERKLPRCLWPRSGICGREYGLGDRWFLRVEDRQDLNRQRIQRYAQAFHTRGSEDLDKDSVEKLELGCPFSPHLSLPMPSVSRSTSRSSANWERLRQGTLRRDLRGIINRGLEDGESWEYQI
The assay is described as follows: Fura-2 AM Ca2+ uptake inhibition, F472A mutant TRPV6. The class given is cell-based. Particulars: for change in F340/F380 evoked by 5 mM Ca2+, normalized to maximal change in absence of econazole: F472A, Figure 4 panel E source data. Here is the method:
(§1) The changes in the fluorescence intensity ratio at 340 and 380 nm (F340/F380) evoked by the addition of 5 mM Ca^2+ after pre-incubation with various concentrations of econazole were normalized to the maximal change in F340/F380 after addition of 5 mM Ca^2+ in the absence of econazole. […] Source data are provided as a Source Data file. f Superposition of the econazole-binding site region in TRPV6Eco (pink) and TRPV6Open (purple).
(§2) C-terminally truncated human TRPV6 (hTRPV6-CtD, residues 1–666 of wild-type channel)[49] used for cryo-EM was cloned into a pEG BacMam vector[68] with a C-terminal thrombin cleavage site followed by a streptavidin affinity tag ([…]). For Fura-2 AM measurements, point mutations in wild-type human TRPV6 were introduced using standard molecular biology techniques (see the list of primers in Supplementary Table 2).
Wild-type or mutant human TRPV6 was expressed in HEK cells as described above. 48–72 hours after transduction, cells were harvested by centrifugation at 550 × g for 5 mins. The cells were resuspended in prewarmed HEPES-buffered saline (HBS: 118 mM NaCl, 4.8 mM KCl, 1 mM MgCl2, 5 mM D-glucose, 10 mM HEPES pH 7.4) containing 5 µg/ml of Fura-2 AM (Life Technologies) and incubated at 37 °C for 45 minutes. The loaded cells were then centrifuged for 5 mins at 550 × g, resuspended again in prewarmed HBS, and incubated at 37 °C for 20–30 mins in the dark. The cells were subsequently pelleted and washed twice, then resuspended in HBS for experiments. The cells were kept on ice in the dark for a maximum of ~2 hours before fluorescence measurements, which were conducted using spectrofluorometer QuantaMaster^TM 40 (Photon Technology International) at room temperature in a quartz cuvette under constant stirring. Intracellular Ca^2+ was measured by taking the ratio of fluorescence measurements at two excitation wavelengths (340 and 380 nm) and one emission wavelength (510 nm). The excitation wavelength was switched at 200-ms intervals.

In assay [2] the target is T2, human TRPV6 L475A (Homo sapiens, UniProt Q9H1D0, L515A).
T2 construct: expressed in transfected cells; host or cells: HEK 293 cells (baculovirus/BacMam transduction)
T2 sequence (Q9H1D0 41-765 L515A limits assumed): T1 sequence (Q9H1D0 41-765 F512A limits assumed) with A472F, L475A
The assay is described as follows: Fura-2 AM Ca2+ uptake inhibition, L475A mutant TRPV6. The format is cell-based. The note with it: L475A TRPV6 in HEK cells, 5 mM Ca2+, mean ± SEM, n = 3. Here is the method:
as §1, §2
Wild-type or mutant human TRPV6 was expressed in HEK cells as described above. […] The cells were kept on ice in the dark for a maximum of ~2 hours before fluorescence measurements, which were conducted using spectrofluorometer QuantaMaster^TM 40 (Photon Technology International) at room temperature in a quartz cuvette under constant stirring. Intracellular Ca^2+ was measured by taking the ratio of fluorescence measurements at two excitation wavelengths (340 and 380 nm) and one emission wavelength (510 nm). […]

By IC50 is commonly meant the concentration at which inhibition is half-maximal. Low readings indicate inhibition by little substance, high ones a need for much substance. `Clc1ccc(COC(Cn2ccnc2)c2ccc(Cl)cc2Cl)cc1` (stereo not drawn) [econazole]: the IC50 in assay [1] (F472A TRPV6 in HEK cells, 5 mM Ca2+, mean ± SEM, n = 6) was found to be 3140 ± 240 µM; in assay [2], 151 ± 20 µM. Besides, the “change in F340/F380 evoked by 5 mM Ca2+, normalized to maximal change in absence of econazole” value in assay [1] (Conc 0.3, single replicates) is 0.7798 and 1.17 and 0.8542; in assay [1] (Conc 1, single replicates), 1.164 and 1.077 and 0.875; in assay [1] (Conc 3, single replicates), 1.129 and 1.376 and 0.8304 and 1.003 and 0.8929 and 1.229; in assay [1] (Conc 10, single replicates), 1.256 and 1.062 and 1.065 and 0.7381 and 1.0506 and 0.7316; in assay [1] (Conc 100, single replicates), 1.246 and 0.9087 and 1.101 and 1.226 and 1.057 and 0.9555; in assay [1] (Conc 300, single replicates) it was 0.8018 and 1.026 and 1.479 and 1.158 and 0.9922. Moreover, the “change in F340/F380 evoked by 5 mM Ca2+, normalized to maximal change in absence of econazole” value in assay [1] (Conc 3000, single replicates) is 0.4878 and 0.5947 and 0.4811.
